Reference: US9409975B2, “Antibody binding microbial heparin binding motif to retard or prevent microbial biofilm formation on implanted medical devices” (priority 2012, dated 2016)

Legend:
[1] = test system: C. albicans binding to heparin; experiment: Inhibition of binding of CFSE-labeled C. albicans to plate-bound heparin (antibody and heparin inhibition studies); assay type: cell-based, Candida albicans
Description: A single colony of C. albicans was suspended in CSM to an OD600 of 0.1, diluted 1:200 into 25 ml CSM and grown at 30° C. overnight to mid-log phase (OD600 0.6-0.7). Cells were washed twice in sterile PBS and suspended in PBS at 2×10^7 CFU/ml. Carboxyfluorescein succinimidyl ester (Life Technologies) was dissolved in DMSO, diluted in PBS to 50 μM, and 0.5 ml CFSE mixed with 0.5 ml C. albicans suspension. The mixture was incubated for 20 min at room temperature on a rotator, washed once with FACS buffer, once with PBS, then suspended in 1 ml FACS buffer. Intensity of labeling was determined as the mean fluorescence intensity using a BD Accuri C6 cytometer (San Jose, Calif.) with excitation at 488 nm and a 533/30 emission filter. […] The following afternoon, C. albicans wild type strain and mutants were labeled with CFSE as follows: after growth of C. albicans to mid-log phase in CSM medium, organisms were washed two times in PBS and suspended in PBS at a concentration of 2×10^7/ml. 0.5 ml cells was mixed with 0.5 ml CFSE, covered in foil, and rotated on a mixer for 20 minutes at room temperature. […] At the end of the incubation period, wells were washed three times with PBS, and fluorescence in each well was measured (Beckman Coulter Multimode detector DTX880). […]

C. albicans = experiment: Histatin killing assay after heparin preincubation; assay type: cell-based, Candida albicans; conditions: 500 units/ml heparin, then histatin 5 (15 μM)
Description: In order to evaluate the consequences of removal of Ssa1 and Ssa2 (Table 4), both targets of histatin, a histatin killing assay was performed as follows. C. albicans strains were grown to late log phase overnight in YPD. A single colony was suspended in 1 ml YPD, diluted 1:500 into 10 ml YPD, and incubated overnight at 30° C. and 225 rpm to OD600 1.0. Yeast cells were washed twice in PBS and 2×10^4 cells suspended in 250 μl RPMI+10 mM HEPES, pH 7.0, with or without 500 units/ml heparin (Sigma). The cells were incubated at 37° C. for one hour with shaking, washed twice with 10 mM phosphate buffer, pH 7.4, and suspended in 20 μl phosphate buffer. Histatin 5 (final concentration 15 μM; Peptides International) or 10 mM phosphate buffer was added to the preincubated cells (total volume 40 μl) and incubated further at 37° C. for 90 minutes with shaking. YPD (360 ul) was added to each tube, a 40 μl aliquot spread onto YPD plates, and colonies counted after two days. The effect of heparin treatment was determined by the formula % change=[(cfu+heparin)−(cfu−heparin)]/(cfu+heparin).

heparin
binding of C. albicans to solid-phase heparin after preincubation with heparin, in words ([1]; 2.5 units (12.5 μg) solid-phase heparin): significantly decreased | decrease in binding of C. albicans to heparin after pre-incubation with soluble heparin ([1]; CFSE-labeled C. albicans pre-incubated with 100 units/ml heparin, p=0.022, data not shown): 27% | decrease in histatin-mediated killing (C. albicans; INT1 double disruptant): 1.5% | decrease in histatin-mediated killing (C. albicans; wild type C. albicans): 25%
